Laboratory results reported in patent US12077503B2, “Substituted cyclic amides and their use as herbicides” (FMC CORPORATION, priority 2015, dated 2024).

Tests used:
Type in all cases: in vivo
[1] = system: ryegrass, Italian (Italian ryegrass, Lolium multiflorum); test: Test A preemergence; details: Lolium multiflorum, pre-emergence, 240 h
Procedure, shortened: (§1)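 Visual injury scores from 0, no effect, to 100, complete control, were assigned versus untreated controls roughly 10 d after treatment in the greenhouse. Test chemicals, formulated with surfactant in a non-phytotoxic solvent, were applied to planted seeds as a preemergence soil spray or postemergence to one- to two-leaf plants 2 to 10 cm tall, in loam–sand soil.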

Kochia (Kochia scoparia) [2] = test: Test A preemergence; details: Bassia scoparia, pre-emergence, 240 h
Procedure, shortened: as §1

[3] = system: barnyardgrass (Echinochloa crus-galli); test: Test A preemergence; details: Echinochloa crus-galli, pre-emergence, 240 h
Procedure, shortened: as §1

[4] = system: pigweed (Amaranthus retroflexus); test: Test A preemergence; details: Amaranthus retroflexus, pre-emergence, 240 h
[5] = system: giant foxtail (Setaria faberii); test: Test A preemergence; details: Setaria faberi, pre-emergence, 240 h
Procedure, shortened: as §1

[6] = system: ragweed (common ragweed, Ambrosia elatior); test: Test A preemergence; details: Ambrosia artemisiifolia, pre-emergence, 240 h
Procedure, shortened: as §1

[7] = system: ryegrass, Italian (Italian ryegrass, Lolium multiflorum); test: Test A postemergence; details: Lolium multiflorum, post-emergence, 240 h, read-out: Plant response rating, Ryegrass, Italian
Procedure, shortened: as §1

Kochia (Kochia scoparia) [8] = test: Test A postemergence; details: Bassia scoparia, post-emergence, 240 h, read-out: Plant response rating, Kochia
Procedure, shortened: as §1

[9] = system: blackgrass (Alopecurus myosuroides); test: Test A postemergence; details: Alopecurus myosuroides, post-emergence, 240 h, read-out: Plant response rating, Blackgrass
Procedure, shortened: as §1

[10] = system: barnyardgrass (Echinochloa crus-galli); test: Test A postemergence; details: Echinochloa crus-galli, post-emergence, 240 h, read-out: Plant response rating, Barnyardgrass
Procedure, shortened: as §1

corn (Zea mays) = test: Test A postemergence; details: Zea mays, post-emergence, 240 h
Procedure, shortened: as §1

[11] = system: pigweed (Amaranthus retroflexus); test: Test A postemergence; details: Amaranthus retroflexus, post-emergence, 240 h, read-out: Plant response rating, Pigweed
Procedure, shortened: as §1

[12] = system: wheat (Triticum aestivum); test: Test A postemergence; details: Triticum aestivum, post-emergence, 240 h, read-out: Plant response rating, Wheat
Procedure, shortened: as §1

[13] = system: giant foxtail (Setaria faberii); test: Test A postemergence; details: Setaria faberi, post-emergence, 240 h, read-out: Plant response rating, Foxtail, Giant
Procedure, shortened: as §1

[14] = system: ragweed (common ragweed, Ambrosia elatior); test: Test A postemergence; details: Ambrosia artemisiifolia, post-emergence, 240 h, read-out: Plant response rating, Ragweed
Procedure, shortened: as §1

[15] = system: Galium (catchweed bedstraw, Galium aparine); test: Test A postemergence; details: Galium, post-emergence, 240 h, read-out: Plant response rating, Galium
Procedure, shortened: as §1

rice (Oryra sativa) = test: Test B flooded paddy test; details: Oryza sativa, 250 g ai/ha, Flood; 0 to 100 scale where 0 is no effect and 100 is complete control; read-out: Rice plant response rating
Procedure, shortened: (§2)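 Percent control, visually estimated after 13–15 d in the greenhouse on a 0–100 basis, compares treated pots with untreated ones; compound was put into paddy water 3 cm above the soil when plants had two leaves.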

[16] = system: barnyardgrass (Echinochloa crus-galli); test: Test B flooded paddy test; details: Echinochloa crus-galli, 250 g ai/ha, Flood; 0 to 100 scale where 0 is no effect and 100 is complete control; read-out: Barnyardgrass plant response rating
Procedure, shortened: as §2

[17] = system: sedge, umbrella (small-flower umbrella sedge, Cyperus difformis); test: Test B flooded paddy test; details: Cyperus difformis, 250 g ai/ha, Flood; 0 to 100 scale where 0 is no effect and 100 is complete control; read-out: Sedge, Umbrella plant response rating
Procedure, shortened: as §2

[18] = system: ducksalad (Heteranthera limosa); test: Test B flooded paddy test; details: Heteranthera limosa, 250 g ai/ha, Flood; 0 to 100 scale where 0 is no effect and 100 is complete control; read-out: Ducksalad plant response rating
Procedure, shortened: as §2

[19] = 125 g ai/ha, Postemergence, visual injury after approximately 10 d, 0 to 100 scale where 0 is no effect and 100 is complete control
[20] = 500 g ai/ha, postemergence, visual injury, 0 to 100 scale (0 no effect, 100 complete control), approx. 10 d

With `CN1CC[C@H](c2ccc(OC(F)(F)F)cc2)[C@@H](C(=O)Nc2cccc(Cl)c2F)C1=O` [Compound 1002] the pest or weed control at 125 g/ha ([1]; 125 g ai/ha, Preemergence, visual injury rating after approximately 10 d, read-out: Ryegrass, Italian plant response rating (0 to 100 scale, 0 is no effect, 100 is complete control)) was 0%, the pest or weed control at 500 g/ha ([1]; 500 g ai/ha, preemergence, visual injury rating about 10 d after treatment, 0 to 100 scale (0 no effect, 100 complete control), read-out: Ryegrass, Italian plant response rating) was 0% and the pest or weed control at 125 g/ha (Kochia (Kochia scoparia) [2]; 125 g ai/ha, Preemergence, visual injury rating after approximately 10 d, read-out: Kochia plant response rating (0 to 100 scale, 0 is no effect, 100 is complete control)) was 0%. For the same compound, the pest or weed control at 500 g/ha (Kochia (Kochia scoparia) [2]; 500 g ai/ha, preemergence, visual injury rating about 10 d after treatment, 0 to 100 scale (0 no effect, 100 complete control), read-out: Kochia plant response rating) was 0%, the pest or weed control at 125 g/ha ([3]; 125 g ai/ha, Preemergence, visual injury rating after approximately 10 d, read-out: Barnyardgrass plant response rating (0 to 100 scale, 0 is no effect, 100 is complete control)) was 20% and the pest or weed control at 500 g/ha ([3]; 500 g ai/ha, preemergence, visual injury rating about 10 d after treatment, 0 to 100 scale (0 no effect, 100 complete control), read-out: Barnyardgrass plant response rating) was 70%. It also gave a pest or weed control at 125 g/ha ([4]; 125 g ai/ha, Preemergence, visual injury rating after approximately 10 d, read-out: Pigweed plant response rating (0 to 100 scale, 0 is no effect, 100 is complete control)) of 20%, a pest or weed control at 500 g/ha ([4]; 500 g ai/ha, preemergence, visual injury rating about 10 d after treatment, 0 to 100 scale (0 no effect, 100 complete control), read-out: Pigweed plant response rating) of 50% and a pest or weed control at 125 g/ha ([5]; 125 g ai/ha, Preemergence, visual injury rating after approximately 10 d, read-out: Foxtail, Giant plant response rating (0 to 100 scale, 0 is no effect, 100 is complete control)) of 30%. It also gave a pest or weed control at 500 g/ha ([5]; 500 g ai/ha, preemergence, visual injury rating about 10 d after treatment, 0 to 100 scale (0 no effect, 100 complete control), read-out: Foxtail, Giant plant response rating) of 80%, a pest or weed control at 125 g/ha ([6]; 125 g ai/ha, Preemergence, visual injury rating after approximately 10 d, read-out: Ragweed plant response rating (0 to 100 scale, 0 is no effect, 100 is complete control)) of 0% and a pest or weed control at 500 g/ha ([6]; 500 g ai/ha, preemergence, visual injury rating about 10 d after treatment, 0 to 100 scale (0 no effect, 100 complete control), read-out: Ragweed plant response rating) of 0%. The pest or weed control at 125 g/ha [7, 19] was 0%, the pest or weed control at 500 g/ha [7, 20] was 0% and the pest or weed control at 125 g/ha (Kochia (Kochia scoparia) [8]; [19]) was 0%. It also gave a pest or weed control at 500 g/ha (Kochia (Kochia scoparia) [8]; [20]) of 40%, a pest or weed control at 125 g/ha [9, 19] of 0% and a pest or weed control at 500 g/ha [9, 20] of 0%. For the same compound, the pest or weed control at 125 g/ha [10, 19] was 50%, the pest or weed control at 500 g/ha [10, 20] was 90% and the Corn plant response rating (crop injury, 0 = no effect, 100 = complete kill) at 125 g/ha (corn (Zea mays); [19]) was 0%. The Corn plant response rating (crop injury, 0 = no effect, 100 = complete kill) at 500 g/ha (corn (Zea mays); [20]) was 0%, the pest or weed control at 125 g/ha [11, 19] was 0% and the pest or weed control at 500 g/ha [11, 20] was 0%. It also gave a plant injury at 125 g/ha [12, 19] of 0%, a plant injury at 500 g/ha [12, 20] of 0% and a pest or weed control at 125 g/ha [13, 19] of 0%. The pest or weed control at 500 g/ha [13, 20] was 50%, the pest or weed control at 125 g/ha [14, 19] was 0% and the pest or weed control at 500 g/ha [14, 20] was 0%. The pest or weed control at 125 g/ha [15, 19] was 0%, the pest or weed control at 500 g/ha [15, 20] was 0% and the pest or weed control at 250 g/ha (rice (Oryra sativa)) was 0%. It also gave a pest or weed control at 250 g/ha [16] of 0%, a pest or weed control at 250 g/ha [17] of 0% and a pest or weed control at 250 g/ha [18] of 60%.
